Values of other authors in EP1569663B1, “IFOSFAMIDE COMPOSITIONS FOR PARENTERAL ADMINISTRATION AND A PROCESS FOR THEIR PREPARATION” (Bharat Serums & Vaccines Ltd., priority 2002, dated 2004).

Assays:
[1] = in water
mouse = details: intravenous administration

Structure (SMILES): O=P1(NCCCl)OCCCN1CCCl (centres unmarked) [Ifosfamide, 3-(2-chtoroethyl)-2-[(2-chloroethyl)amino]-tetrahydro-2H-1,3,2-oxazaphosphorin-2-oxide]
- water solubility [1]: about 100 mg/ml
- LD50 (mouse): 338 mg/kg body weight
